Assay results as given in the supplement of paper PMC10307832.

Key:
R406 = compound: COc1cc(Nc2ncc(F)c(Nc3ccc4c(n3)NC(=O)C(C)(C)O4)n2)cc(OC)c1OC [R406]; assay: relative viability (nuclei count vs DMSO), 5 days (fraction); higher = more cells survive
Summary of the method: (§1)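 In 1536-well plates, lung cancer cell lines rested overnight at 37 °C before five library-drug doses (not always all listed), √10 apart, were pinned onto vehicle-anchored plates. Nuclei were counted with MetaXpress from 4× Hoechst images taken after 5 days without medium change. Viability compares treated-well with vehicle-well nuclei as a median over plates, and plates needed control CV below 25% plus at least one doubling to pass.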

Daporinad = compound: O=C(/C=C/c1cccnc1)NCCCCC1CCN(C(=O)c2ccccc2)CC1 [Daporinad]; assay: as above
Summary of the method: as §1

Row | Cell Line | relative viability (R406; 0.08 µM) | relative viability (R406; 0.253 µM) | relative viability (R406; 0.8 µM) | relative viability (R406; 2.53 µM) | relative viability (R406; 8 µM) | relative viability (Daporinad; 0.0005 µM) | relative viability (Daporinad; 0.001581 µM) | relative viability (Daporinad; 0.005 µM) | relative viability (Daporinad; 0.01581 µM)
1 | PC-14 | 0.968 | 1.18 | 1.09 | 0.759 | 0.601 | 0.951 | 1.08 | 1.08 | 0.871
2 | RERF-LC-KJ | 0.98 | 1.06 | 1.06 | 0.781 | 0.827 | 0.923 | 1.04 | 1.07 | 1.02
3 | SK-LU-1 | 0.955 | 1.16 | 1.15 | 0.513 | 0.386 | 1.06 | 1.11 | 1.19 | 1.12
4 | SK-MES-1 | 0.989 | 1.05 | 1.06 | 0.648 | 0.322 | 0.978 | 1.05 | 1.12 | 1.03
5 | SW 900 | 0.798 | 1.03 | 1.26 | 0.166 | 0.293 | 0.748 | 0.733 | 0.864 | 0.592
6 | SW 1573 | 1.02 | 1.11 | 1.11 | 0.803 | 0.543 | 1.02 | 1.15 | 0.929 | 0.678
